The values that follow are results of earlier work, collected in patent publication US20220088278A1, “Covered Stent For Local Drug Delivery” (BIOTRONIK AG, priority 2019, published 2022).

For the series, the system named is main bile duct of pancreatic cancer patients. The following applies: thirty-six pancreatic cancer patients.

Take `CC(=O)O[C@H]1C(=O)[C@@]2(C)[C@H]([C@H](OC(=O)c3ccccc3)[C@]3(O)C[C@H](OC(=O)[C@H](O)[C@@H](NC(=O)c4ccccc4)c4ccccc4)C(C)=C1C3(C)C)[C@]1(OC(C)=O)CO[C@@H]1C[C@@H]2O` [paclitaxel]: the “duct patency duration versus covered stent without drug” value is given as “did not significantly differ”.
